Results taken from patent US6228841A, “Peptide derivatives” (Daiichi Pharmaceutical Co., Ltd., priority 1995, dated 2001).
Where two headings read alike, the source gives them in different places.

Tested on: mice
Assay: analgesic activity by pressure stimulation method (base of tail)
Type: in vivo
Details: Mus musculus, read-out: ED50 (dose providing 50% of % of MPE, analgesic activity)
Procedure: The analgesic activities of peptide derivatives of the present invention were evaluated by pressure stimulation method as follows. Mice were subjected to pressure stimulation at the bases of their tails at a rate of 10 mmHg/second. […] For the experiments, mice that were preliminary determined to respond to a pressure of 40-50 mmHg were used. The maximum stimulating pressure was 100 mmHg. Analgesic activity was calculated as percent of maximum possible effect (% of MPE) according to the following equation: [formula]
wherein Po is the pain reaction threshold before the administration of a drug; Pt is the pain reaction threshold "t" minutes after the administration of the drug; and Pc is the maximum stimulating pressure. According to a dose-response curve, ED50 value was determined as a dose of drug providing 50% of % of MEP and used for comparison of analgesic activity of drugs.

## CN1CC[C@]23c4c5ccc(O)c4O[C@H]2[C@@H](O)C=C[C@H]3[C@H]1C5 [morphine]
Oral administration
  ED50: 29.6 mg/kg
sc, subcutaneous administration (skin in the backs)
  ED50: 4.6 mg/kg
